Consider two compounds from patent publication US20240294545A1 (CSPC Zhongqi Pharmaceutical Technology (Shijiazhuang) Co., …, priority 2020, published 2024).

Marks after values point to notes of the source that are not given here.

For experiment [1], the system named is Human glioblastoma cell line LN-18. In words: LN18 cell proliferation combined with radiotherapy (CTG assay).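 Note: readout is CTG luminescence proliferation not KAP1 phosphorylation.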 Type of experiment: cell-based. As to conditions: Homo sapiens, LN-18, light or radiation study; LN18 cells, 1 Gy irradiation 1 h after compound, 6 days, CTG. The method, then: 5 Test of the Inhibitory Activities of the Compounds of the Present Disclosure Combined with Radiotherapy on LN18 Cell Proliferation
• Cell: Human glioblastoma cell line LN-18
5.2 Experimental Procedures
• (1) Cell inoculation • 1) The cell culture fluid was preheated at 37° C. • 2) A complete culture medium of LN18 cells was prepared, at a ratio of DMEM medium:FBS=95:5 (V/V). • 3) Cells were digested with trypsin, collected to serve as a cell suspension, and counted, the cell suspension was then added into a 96-well plate at 1500 cells/well and 100 μL of cell fluid/well, and three parallel wells were set. • 4) After inoculated in the plate, the cells were cultured overnight under the condition of 37° C. and 5% CO2. • (2) Compound addition and incubation • 1) AZD1390 and tested compounds, respectively, were sequentially diluted 5 times with DMSO, starting from the concentration of 10 mM and yielding the concentrations of 10, 2, 0.4, 0.08, 0.016, 0.0032, 0.00064, 0.000128, and 0.0000256 mM in turn. The compound solutions at the above concentrations were diluted 5000 times with the complete culture medium. The final 2× concentrations were in order 2000, 400, 80, 16, 3.2, 0.64, 0.128, 0.0256, and 0.00512 nM. The vehicle control was 0.02% DMSO culture fluid. • 2) A complete culture medium containing 100 μL of the compound solution was added to each well, and the final concentrations of the compounds in the wells were in order 1000, 200, 40, 8, 1.6, 0.32, 0.064, 0.0128, and 0.00256 nM. The 0.01% DMSO culture fluid was contained in the vehicle control well. After incubated with compound for 1 h, the cells were irradiated at a dose of 1 Gy. • 3) After irradiation, the plate was put into an incubator and incubated under the condition of 37° C. and 5% CO2 for 6 days. Then detection was performed by adopting CTG assay (100 μL of liquid from each well was sucked out and discarded, and 50 μL of CTG reagent was added to each well, and incubated at room temperature for 30 min, and the luminescence intensity was detected). • (3) Data analysis • 1) The Luminescence signal (RLU) of each well was detected. • 2) Proliferation inhibitory activity was calculated according to the formula: % inhibitory activity=RLUtreatment/RLUAvg(Vehicle)*100. 5.3 the Inhibitory Activities of Compounds of the Present Disclosure Combined with Radiotherapy on LN18 Cell Proliferation

Experiment [2] has as its system subcutaneous xenograft tumor of human colon cancer cell line HT-29. In words: HT-29 subcutaneous xenograft, combined with irinotecan liposome injection. The note with it: compound 25 mg/kg intragastric + irinotecan liposome 10 mg/kg ip. The experiment is classed as in vivo, NU/NU mice. The method, then:
7 Efficacy Test of the Compounds of the Present Disclosure Combined with Irinotecan Liposome Injection on Inhibiting the Growth of Subcutaneous Xenograft Tumor of Human Colon Cancer Cell Line HT-29
7.1 Experimental Animals: NU/NU Mice, SPF, Female, 20 to 30 g.
Irinotecan liposome injection (HE072), 43 mg: 10 mL, milky white liquid, batch No. B37191202, provided by Preparation Research Institute 2 from CSPC Zhongqi Pharmaceutical Technology (Shijiazhuang) Co., Ltd., diluted to an appropriate concentration with 5% glucose injection while testing.
HT-29 cell, provided by Nanjing Kebai Biotechnology Co., Ltd.; 5A culture medium:fetal bovine serum=90%:10%, 37° C., 5% CO2.
NU/NU nude mice were subcutaneously inoculated with HT-29 human colon cancer cells. When the mean tumor volume reached about 170 mm^3 (9 days after inoculation), the animals were evenly divided into groups according to the tumor volume (d0), with 6 mice in each group. 10 mg/kg of HE072 was administered intraperitoneally once a week for 1 time. Vehicle control, 25 mg/kg of A-6, 25 mg/kg of A-46, and 25 mg/kg of AZD1390 were administered intragastrically once a day, from Monday to Thursday every week except Friday to Sunday, for 1 week (4 times). The tumor volume was measured twice a week, the body weight of mouse was weighed every day, and the data were recorded. The tumor volume (TV) was calculated according to the formula: TV=½×a×b2, wherein a and b represent the long and short diameters of tumor, respectively. Tumor growth inhibitory rate TGI (%)=[1−(Ti−T0)/(Vi−V0)]×100, wherein Ti represents the mean tumor volume of a given treatment group on a certain day; TO represents the mean tumor volume of this treatment group at the beginning of administration; Vi represents the mean tumor volume of the vehicle control group on a certain day (the same day as that in Ti); V0 represents the mean tumor volume of the vehicle control group at the beginning of administration. At the end of the test (d17), the animals were sacrificed, the tumors were stripped and weighed, and the tumor weight inhibitory rates were calculated.

For `Cn1c(=O)n2c3c4c(c(-c5ccc(OCCCN6CCCCC6)nc5)c(F)cc4ncc31)NCC2(C)C` [Example A-193, 6-fluoro-2,10,10-trimethyl-7-(6-(3-(piperidin-1-yl)propoxy)pyridin-3-yl)-2,8,9,10-tetrahydro-1H-2,4,8,10a-tetraazanaphtho[2,1,8-cde]azulen-1(2H)-one], in experiment [1], the half-maximal inhibitory concentration (IC50) – broadly, the concentration needed to halve the response being measured – is 10.1 nM.

In the case of `CC(C)n1c(=O)n(C)c2cnc3cc(F)c(-c4ccc(OCCCN5CCCCC5)nc4)cc3c21` [AZD1390, reference compound], in experiment [1], the IC50 worked out at 2.79 nM. In addition, in experiment [2] (day 16), the “D 16 TGI” value is given as 89.6% and the “D 16 TV (MEAN ± SD)” value was 244.2 ± 192.8***^### mm^3. Further, in experiment [2] (end of test), the Tumor weight was 0.18 ± 0.18 g and the “Tumor weight inhibitory rate” value was 74.7%.
